Results from PubChem BioAssay (NCI).
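Tested at 5 concentrations; 48 h exposure; 96-well plates; endpoints linearly interpolated, else capped at highest concentration. At the TGI there is no net growth.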

Assays:
Experiment in all cases: inhibition of tumour cell growth, NCI panel, 48 h
A549 NSCLC = tested on: A549 NSCLC
BT-549 breast = tested on: BT-549 breast
CAKI-1 renal = tested on: CAKI-1 renal
CCRF-CEM leukemia = tested on: CCRF-CEM leukemia
HCT-15 colon = tested on: HCT-15 colon
HOP-62 NSCLC = tested on: HOP-62 NSCLC
IGROV1 ovarian = tested on: IGROV1 ovarian
K-562 leukemia = tested on: K-562 leukemia
MCF7 breast = tested on: MCF7 breast
MDA-MB-231 breast = tested on: MDA-MB-231 breast
OVCAR-3 ovarian = tested on: OVCAR-3 ovarian
OVCAR-5 ovarian = tested on: OVCAR-5 ovarian
RPMI-8226 leukemia = tested on: RPMI-8226 leukemia
SF-295 CNS = tested on: SF-295 CNS
SK-MEL-28 melanoma = tested on: SK-MEL-28 melanoma
SW-620 colon = tested on: SW-620 colon
T-47D breast = tested on: T-47D breast
HS 578T breast = tested on: HS 578T breast
LOX IMVI melanoma = tested on: LOX IMVI melanoma
TK-10 renal = tested on: TK-10 renal

Measured: TGI

CCOC1(OCC)N=C(N)C2(C#N)C3(C(=O)N(C(C)C)N=C3C)C12C#N (centres undefined)
not listed: HS 578T breast | LOX IMVI melanoma | TK-10 renal
> 100 µM: all other assays above

CC(C)(O)CO/N=C1\C(c2c(O)[nH]c3ccccc23)=Nc2ccccc21
> 100 µM: HS 578T breast | K-562 leukemia
8.68 µM: TK-10 renal
> 24.3 µM: LOX IMVI melanoma
5.95 µM: OVCAR-3 ovarian
13.9 µM: IGROV1 ovarian
2.32 µM: CAKI-1 renal
> 75.7 µM: MDA-MB-231 breast
7.16 µM: MCF7 breast
> 46.2 µM: SK-MEL-28 melanoma
28.6 µM: BT-549 breast
30.7 µM: HCT-15 colon
16.4 µM: HOP-62 NSCLC
18.4 µM: SF-295 CNS
9.3 µM: OVCAR-5 ovarian
> 86.4 µM: SW-620 colon
> 31.6 µM: RPMI-8226 leukemia
6.54 µM: CCRF-CEM leukemia
11.1 µM: A549 NSCLC

O=C1C(=c2cc3c(c4ccccc24)=NC24CCCCC2C(c2ccccc2)C=C(c2ccccc2)N34)C(=O)c2ccccc21 (centres undefined)
53.8 µM: RPMI-8226 leukemia
not listed: BT-549 breast | HCT-15 colon
> 100 µM: all other assays above

CC1=NN(c2cccc(Cl)c2)C(=N/c2nc3ccccc3s2)/C1=C\c1cccs1
32.5 µM: RPMI-8226 leukemia
45.5 µM: OVCAR-3 ovarian
73 µM: HS 578T breast
47.1 µM: CCRF-CEM leukemia
93.4 µM: K-562 leukemia
not listed: A549 NSCLC | BT-549 breast
> 100 µM: all other assays above

CCCNC(=O)Cn1c(C)cc2ccccc21
not listed: MDA-MB-231 breast | SF-295 CNS
> 100 µM: all other assays above

O=Nc1sc(=N\O)/c(=N/O)sc1NO
not listed: T-47D breast | HS 578T breast | TK-10 renal
> 100 µM: all other assays above

COCCN(CCOC)C(=O)COc1c2cc(C(C)(C)C)cc1Cc1cc(C(C)(C)C)cc(c1OCC(=O)N(CCOC)CCOC)Cc1cc(C(C)(C)C)cc(c1OCC(=O)N(CCOC)CCOC)Cc1cc(C(C)(C)C)cc(c1OCC(=O)N(CCOC)CCOC)Cc1cc(C(C)(C)C)cc(c1OCC(=O)N(CCOC)CCOC)C2
5.04 µM: HOP-62 NSCLC
18.2 µM: OVCAR-5 ovarian
11.3 µM: A549 NSCLC
5.06 µM: MDA-MB-231 breast
6.42 µM: MCF7 breast
10.2 µM: OVCAR-3 ovarian
11.9 µM: SW-620 colon
11.8 µM: HCT-15 colon
10.1 µM: IGROV1 ovarian
15 µM: TK-10 renal
8.92 µM: LOX IMVI melanoma
6.43 µM: SF-295 CNS
18.6 µM: SK-MEL-28 melanoma
19.5 µM: T-47D breast

C=C1CC2CC(=O)C(O)C(C1)C2 (centres undefined)
not listed: BT-549 breast | IGROV1 ovarian | MDA-MB-231 breast | SK-MEL-28 melanoma
> 100 µM: all other assays above

N#C/C(C(=S)Nc1ccccc1)=C(/N)N1CCCC1
92.5 µM: CAKI-1 renal
not listed: BT-549 breast | T-47D breast
> 100 µM: all other assays above

Cn1c(=O)n2c(-c3ccccc3)c(-c3ccccc3)n2c1=O
not listed: RPMI-8226 leukemia | T-47D breast
> 100 µM: all other assays above

O=C1C2=Cc3ccccc3OC2(O)Oc2ccc(O)cc21 (centres undefined)
74.1 µM: K-562 leukemia
44.4 µM: CCRF-CEM leukemia
not listed: HS 578T breast
> 100 µM: all other assays above

Nc1ncnc2c1ncn2C1C=CC(COS(N)(=O)=O)C1 (centres undefined)
37.6 µM: LOX IMVI melanoma
57.6 µM: CAKI-1 renal
not listed: BT-549 breast
> 100 µM: all other assays above

COc1cc2c(cc1OC)-c1c(oc3cc(OC4OC(CO)C(O)C(O)C4O)c(OC)cc3c1=O)C(O)O2 (centres undefined)
not listed: MCF7 breast | T-47D breast
> 100 µM: all other assays above
